US20250213532A1, “5-METHOXY-N,N-[…][…] THE TREATMENT OF BIPOLAR DISORDER” (GH RESEARCH IRELAND LIMITED, priority 2022, published 2025)

Legend:
[1] = system: patients with clinically diagnosed postpartum depression (PPD); assay: Clinical trial in postpartum depression: safety and tolerability; assay type: in vivo, human; conditions: one PPD patient
Excerpt: (§1) The patient completed all planned visit days.

[2] = system: patients with treatment-resistant major depressive disorder (TRD); assay: Phase 1/2 clinical trial of inhaled 5-MeO-DMT in TRD: safety and tolerability; conditions: Part A
Description: This trial was designed in two parts. Part A was an open-label, single-arm, single-dose Phase 1 trial with two dose levels (12 mg (n=4) and 18 mg (n=4)). […] The primary endpoint of Part B was to assess the effects on the severity of depression, as assessed by the proportion of patients in remission on day seven after dosing, defined as a MADRS total score of less than or equal to 10.

[3] = Pharmacokinetics after single inhaled dose (LC-MS/MS); assay type: in vivo, human
Description: Blood samples were obtained at 1; 2; 4; 7; 10; 15; 20; 30; 45 min and 1; 1.5; 2; 3; 4 hours after administration.
PK parameters were generated by algebraic analysis of the concentration versus time plots for each individual. The analysis was carried out using the software Phoenix WinNonlin 6.3.

[4] = system: Salmonella typhimurium TA98, TA100, TA1535 and TA1537; assay: Bacterial mutation test, Salmonella typhimurium; assay type: cell-based; conditions: up to 5000 µg/plate; absence and presence of rat liver S-9
Excerpt: These conditions included treatments at concentrations up to […] (the maximum recommended concentration according to current regulatory guidelines), in the absence and in the presence of a rat liver metabolic activation system (S-9).

[5] = system: patients with clinically diagnosed postpartum depression (PPD); assay: Clinical trial of inhaled 5-MeO-DMT in postpartum depression: BPRS; assay type: in vivo, human; conditions: one PPD patient; for BPRS Blunted affect improvement / BPRS Blunted affect score / BPRS Conceptual disorganization improvement / BPRS Conceptual disorganization score / BPRS Disorientation improvement / BPRS Disorientation score / BPRS Grandiosity improvement / BPRS Grandiosity score / BPRS Hallucinatory behaviour improvement / BPRS Hallucinatory behaviour score / BPRS Hostility improvement / BPRS Hostility score / BPRS Mannerisms and Posturing improvement / BPRS Mannerisms and Posturing score / BPRS Motor retardation improvement / BPRS Motor retardation score / BPRS Suspiciousness improvement / BPRS Suspiciousness score / BPRS Uncooperativeness improvement / BPRS Uncooperativeness score / BPRS Unusual Thought Content improvement / BPRS Unusual Thought Content score: baseline 1; for BPRS Excitement improvement / BPRS Excitement score: baseline 2; for BPRS Emotional withdrawal improvement / BPRS Emotional withdrawal score: baseline 5; for BPRS Anxiety improvement / BPRS Anxiety score: baseline 7
Excerpt: as §1

COc1ccc2[nH]cc(CCN(C)C)c2c1 [5-MeO-DMT]
Tolerability of inhalation procedure [1]: well tolerated with no inhalation-related adverse events | Adverse events (cramping left abdominal pain and headache) ([1]; Day 0): mild, short-lasting and resolved spontaneously | ECG, safety laboratory analyses, CADSS ([1]; ECG 3 hours, laboratory 7 days, CADSS 3 hours, 1 day, 7 days): unremarkable | Patients who experienced at least one ADR ([2]; 12 mg single dose): 3 of 4 | Patients who experienced at least one ADR ([2]; 18 mg single dose): 3 of 4 | Pharmacokinetics under uptitration dosing schemes vs single dose ([3]; dosing schemes relying on uptitration): Substantially similar results | Accumulation upon repeated administration ([3]; repeated administration within a time frame of 1 to 4 hours): No accumulation | Induction of mutation [4]: did not induce mutation | BPRS Blunted affect improvement ([5]; Day 1): 0 | BPRS Blunted affect score ([5]; Day 1): 1 | BPRS Conceptual disorganization improvement ([5]; Day 1): 0 | BPRS Conceptual disorganization score ([5]; Day 1): 1 | BPRS Disorientation improvement ([5]; Day 1): 0 | BPRS Disorientation score ([5]; Day 1): 1 | BPRS Grandiosity improvement ([5]; Day 1): 0 | BPRS Grandiosity score ([5]; Day 1): 1 | BPRS Hallucinatory behaviour improvement ([5]; Day 1): 0 | BPRS Hallucinatory behaviour score ([5]; Day 1): 1 | BPRS Hostility improvement ([5]; Day 1): 0 | BPRS Hostility score ([5]; Day 1): 1 | BPRS Mannerisms and Posturing improvement ([5]; Day 1): 0 | BPRS Mannerisms and Posturing score ([5]; Day 1): 1 | BPRS Motor retardation improvement ([5]; Day 1): 0 | BPRS Motor retardation score ([5]; Day 1): 1 | BPRS Suspiciousness improvement ([5]; Day 1): 0 | BPRS Suspiciousness score ([5]; Day 1): 1 | BPRS Uncooperativeness improvement ([5]; Day 1): 0 | BPRS Uncooperativeness score ([5]; Day 1): 1 | BPRS Unusual Thought Content improvement ([5]; Day 1): 0 | BPRS Unusual Thought Content score ([5]; Day 1): 1 | BPRS Excitement improvement ([5]; Day 1): 1 | BPRS Excitement score ([5]; Day 1): 1 | BPRS Emotional withdrawal improvement ([5]; Day 1): 4 | BPRS Emotional withdrawal score ([5]; Day 1): 1 | BPRS Depressive Mood improvement ([5]; Day 1, baseline 6): 5 | BPRS Depressive Mood score ([5]; Day 1, baseline 6): 1 | BPRS Guilt feelings improvement ([5]; Day 1, baseline 6): 5 | BPRS Guilt feelings score ([5]; Day 1, baseline 6): 1 | BPRS Somatic Concern improvement ([5]; Day 1, baseline 6): 5 | BPRS Somatic Concern score ([5]; Day 1, baseline 6): 1 | BPRS Tension score ([5]; Day 1, baseline 6): 1 | BPRS Anxiety improvement ([5]; Day 1): 6 | BPRS Anxiety score ([5]; Day 1): 1 | BPRS Blunted affect improvement ([5]; Day 7): 0 | BPRS Blunted affect score ([5]; Day 7): 1 | BPRS Conceptual disorganization improvement ([5]; Day 7): 0 | BPRS Conceptual disorganization score ([5]; Day 7): 1 | BPRS Disorientation improvement ([5]; Day 7): 0 | BPRS Disorientation score ([5]; Day 7): 1 | BPRS Grandiosity improvement ([5]; Day 7): 0 | BPRS Grandiosity score ([5]; Day 7): 1 | BPRS Hallucinatory behaviour improvement ([5]; Day 7): 0 | BPRS Hallucinatory behaviour score ([5]; Day 7): 1 | BPRS Hostility improvement ([5]; Day 7): 0 | BPRS Hostility score ([5]; Day 7): 1 | BPRS Mannerisms and Posturing improvement ([5]; Day 7): 0 | BPRS Mannerisms and Posturing score ([5]; Day 7): 1 | BPRS Motor retardation improvement ([5]; Day 7): 0 | BPRS Motor retardation score ([5]; Day 7): 1 | BPRS Suspiciousness improvement ([5]; Day 7): 0 | BPRS Suspiciousness score ([5]; Day 7): 1 | BPRS Uncooperativeness improvement ([5]; Day 7): 0 | BPRS Uncooperativeness score ([5]; Day 7): 1 | BPRS Unusual Thought Content improvement ([5]; Day 7): 0 | BPRS Unusual Thought Content score ([5]; Day 7): 1 | BPRS Excitement improvement ([5]; Day 7): 1 | BPRS Excitement score ([5]; Day 7): 1 | BPRS Emotional withdrawal improvement ([5]; Day 7): 4 | BPRS Emotional withdrawal score ([5]; Day 7): 1 | BPRS Depressive Mood improvement ([5]; Day 7, baseline 6): 5 | BPRS Depressive Mood score ([5]; Day 7, baseline 6): 1 | BPRS Guilt feelings improvement ([5]; Day 7, baseline 6): 5 | BPRS Guilt feelings score ([5]; Day 7, baseline 6): 1 | BPRS Somatic Concern improvement ([5]; Day 7, baseline 6): 5 | BPRS Somatic Concern score ([5]; Day 7, baseline 6): 1 | BPRS Tension improvement ([5]; Day 7, baseline 6): 5 | BPRS Tension score ([5]; Day 7, baseline 6): 1 | BPRS Anxiety improvement ([5]; Day 7): 6 | BPRS Anxiety score ([5]; Day 7): 1 | BPRS Blunted affect improvement ([5]; Discharge): 0 | BPRS Blunted affect score ([5]; Discharge): 1 | BPRS Conceptual disorganization improvement ([5]; Discharge): 0 | BPRS Conceptual disorganization score ([5]; Discharge): 1 | BPRS Disorientation improvement ([5]; Discharge): 0 | BPRS Disorientation score ([5]; Discharge): 1 | BPRS Grandiosity improvement ([5]; Discharge): 0 | BPRS Grandiosity score ([5]; Discharge): 1 | BPRS Hallucinatory behaviour improvement ([5]; Discharge): 0 | BPRS Hallucinatory behaviour score ([5]; Discharge): 1 | BPRS Hostility improvement ([5]; Discharge): 0 | BPRS Hostility score ([5]; Discharge): 1 | BPRS Mannerisms and Posturing improvement ([5]; Discharge): 0 | BPRS Mannerisms and Posturing score ([5]; Discharge): 1 | BPRS Motor retardation improvement ([5]; Discharge): 0 | BPRS Motor retardation score ([5]; Discharge): 1 | BPRS Suspiciousness improvement ([5]; Discharge): 0 | BPRS Suspiciousness score ([5]; Discharge): 1 | BPRS Uncooperativeness improvement ([5]; Discharge): 0 | BPRS Uncooperativeness score ([5]; Discharge): 1 | BPRS Unusual Thought Content improvement ([5]; Discharge): 0 | BPRS Unusual Thought Content score ([5]; Discharge): 1 | BPRS Excitement improvement ([5]; Discharge): 1 | BPRS Excitement score ([5]; Discharge): 1 | BPRS Emotional withdrawal improvement ([5]; Discharge): 4 | BPRS Emotional withdrawal score ([5]; Discharge): 1 | BPRS Depressive Mood improvement ([5]; Discharge, baseline 6): 5 | BPRS Depressive Mood score ([5]; Discharge, baseline 6): 1 | BPRS Guilt feelings improvement ([5]; Discharge, baseline 6): 5 | BPRS Guilt feelings score ([5]; Discharge, baseline 6): 1 | BPRS Somatic Concern improvement ([5]; Discharge, baseline 6): 5 | BPRS Somatic Concern score ([5]; Discharge, baseline 6): 1 | BPRS Tension score ([5]; Discharge, baseline 6): 1 | BPRS Anxiety improvement ([5]; Discharge): 6 | BPRS Anxiety score ([5]; Discharge): 1
